# Reference: the supplement of paper PMC10307832
# Assays:
# Assay in all cases: relative viability (nuclei count vs DMSO), 5 days (fraction); higher = more cells survive
# [1] = test system: BEN
# Method in brief: (§1)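 Five library-drug doses in √10 steps were combined with a fixed anchor-drug dose, or a single drug was given alone, by pin tool to lung cancer cell lines in 1536-well plates the day after seeding. Nuclei were stained and counted after 5 days. Relative viability is the nuclei count in treated wells over that in vehicle wells, taken as the median of duplicate plates.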
# [2] = test system: EKVX
# Method in brief: as §1
# [3] = test system: HARA
# Method in brief: as §1
# [4] = test system: HCC-366
# Method in brief: as §1
# [5] = test system: HCC-827
# Method in brief: as §1
# [6] = test system: LC-2-ad
# Method in brief: as §1
# [7] = test system: LOU-NH91
# Method in brief: as §1
# [8] = test system: NCI-H1355
# Method in brief: as §1
# [9] = test system: NCI-H1395
# Method in brief: as §1
# [10] = test system: NCI-H1437
# Method in brief: as §1
# [11] = test system: NCI-H1734
# Method in brief: as §1
# [12] = test system: NCI-H1792
# Method in brief: as §1
# [13] = test system: NCI-H2009
# Method in brief: as §1
# [14] = test system: NCI-H2087
# Method in brief: as §1
# [15] = test system: NCI-H2170
# Method in brief: as §1
# [16] = test system: NCI-H2228
# Method in brief: as §1
# [17] = test system: NCI-H2342
# Method in brief: as §1
# [18] = test system: NCI-H2405
# Method in brief: as §1
# [19] = test system: NCI-H596
# Method in brief: as §1
# [20] = test system: NCI-H647
# Method in brief: as §1
# [21] = test system: NCI-H661
# Method in brief: as §1
# [22] = test system: SK-LU-1
# Method in brief: as §1
# [23] = test system: SK-MES-1
# Method in brief: as §1
smiles,measurement,setting,value
O=C(O)c1ccc(-c2c[nH]c3ncc(-c4ccccc4)cc23)cc1C1CCCC1 + Cc1nc(Nc2ncc(C(=O)Nc3c(C)cccc3Cl)s2)cc(N2CCN(CCO)CC2)n1 [Dasatinib] (partner 0.075 µM),relative viability,[1]; first compound 0.04 µM,0.291
same,relative viability,[1]; first compound 0.1265 µM,0.374
same,relative viability,[1]; first compound 0.4 µM,0.358
same,relative viability,[1]; first compound 1.265 µM,0.291
same,relative viability,[2]; first compound 0.04 µM,0.547
same,relative viability,[2]; first compound 0.1265 µM,0.512
same,relative viability,[2]; first compound 0.4 µM,0.564
same,relative viability,[2]; first compound 1.265 µM,0.675
same,relative viability,[3]; first compound 0.04 µM,0.237
same,relative viability,[3]; first compound 0.1265 µM,0.294
same,relative viability,[3]; first compound 0.4 µM,0.308
same,relative viability,[3]; first compound 1.265 µM,0.3
same,relative viability,[4]; first compound 0.04 µM,0.583
same,relative viability,[4]; first compound 0.1265 µM,0.786
same,relative viability,[4]; first compound 0.4 µM,0.689
same,relative viability,[4]; first compound 1.265 µM,0.669
same,relative viability,[5]; first compound 0.04 µM,0.339
same,relative viability,[5]; first compound 0.1265 µM,0.294
same,relative viability,[5]; first compound 0.4 µM,0.348
same,relative viability,[5]; first compound 1.265 µM,0.381
same,relative viability,[6]; first compound 0.04 µM,0.505
same,relative viability,[6]; first compound 0.1265 µM,0.813
same,relative viability,[6]; first compound 0.4 µM,0.489
same,relative viability,[6]; first compound 1.265 µM,0.463
same,relative viability,[7]; first compound 0.04 µM,0.573
same,relative viability,[7]; first compound 0.1265 µM,0.667
same,relative viability,[7]; first compound 0.4 µM,0.508
same,relative viability,[7]; first compound 1.265 µM,0.577
same,relative viability,[8]; first compound 0.04 µM,0.754
same,relative viability,[8]; first compound 0.1265 µM,0.841
same,relative viability,[8]; first compound 0.4 µM,0.664
same,relative viability,[8]; first compound 1.265 µM,0.567
same,relative viability,[9]; first compound 0.04 µM,0.392
same,relative viability,[9]; first compound 0.1265 µM,0.396
same,relative viability,[9]; first compound 0.4 µM,0.365
same,relative viability,[9]; first compound 1.265 µM,0.426
same,relative viability,[10]; first compound 0.04 µM,0.385
same,relative viability,[10]; first compound 0.1265 µM,0.386
same,relative viability,[10]; first compound 0.4 µM,0.374
same,relative viability,[10]; first compound 1.265 µM,0.378
same,relative viability,[11]; first compound 0.04 µM,0.502
same,relative viability,[11]; first compound 0.1265 µM,0.437
same,relative viability,[11]; first compound 0.4 µM,0.468
same,relative viability,[11]; first compound 1.265 µM,0.409
same,relative viability,[12]; first compound 0.1265 µM,0.8
same,relative viability,[12]; first compound 0.4 µM,0.856
same,relative viability,[12]; first compound 1.265 µM,0.847
same,relative viability,[13]; first compound 0.04 µM,0.322
same,relative viability,[13]; first compound 0.1265 µM,0.312
same,relative viability,[13]; first compound 0.4 µM,0.277
same,relative viability,[13]; first compound 1.265 µM,0.264
same,relative viability,[14]; first compound 0.04 µM,0.752
same,relative viability,[14]; first compound 0.1265 µM,0.778
same,relative viability,[14]; first compound 0.4 µM,0.896
same,relative viability,[14]; first compound 1.265 µM,0.661
same,relative viability,[15]; first compound 0.04 µM,0.522
same,relative viability,[15]; first compound 0.1265 µM,0.623
same,relative viability,[15]; first compound 0.4 µM,0.529
same,relative viability,[15]; first compound 1.265 µM,0.564
same,relative viability,[16]; first compound 0.04 µM,0.601
same,relative viability,[16]; first compound 0.1265 µM,0.607
same,relative viability,[16]; first compound 0.4 µM,0.519
same,relative viability,[16]; first compound 1.265 µM,0.395
same,relative viability,[17]; first compound 0.04 µM,0.34
same,relative viability,[17]; first compound 0.1265 µM,0.377
same,relative viability,[17]; first compound 0.4 µM,0.325
same,relative viability,[17]; first compound 1.265 µM,0.289
same,relative viability,[18]; first compound 0.04 µM,0.207
same,relative viability,[18]; first compound 0.1265 µM,0.253
same,relative viability,[18]; first compound 0.4 µM,0.191
same,relative viability,[18]; first compound 1.265 µM,0.191
same,relative viability,[19]; first compound 0.04 µM,0.596
same,relative viability,[19]; first compound 0.1265 µM,0.572
same,relative viability,[19]; first compound 0.4 µM,0.601
same,relative viability,[19]; first compound 1.265 µM,0.639
same,relative viability,[20]; first compound 0.04 µM,0.172
same,relative viability,[20]; first compound 0.1265 µM,0.24
same,relative viability,[20]; first compound 0.4 µM,0.178
same,relative viability,[20]; first compound 1.265 µM,0.139
same,relative viability,[21]; first compound 0.04 µM,0.852
same,relative viability,[21]; first compound 0.1265 µM,1.1
same,relative viability,[21]; first compound 0.4 µM,0.792
same,relative viability,[21]; first compound 1.265 µM,0.797
same,relative viability,[22]; first compound 0.04 µM,0.169
same,relative viability,[22]; first compound 0.1265 µM,0.194
same,relative viability,[22]; first compound 0.4 µM,0.157
same,relative viability,[22]; first compound 1.265 µM,0.165
same,relative viability,[23]; first compound 0.04 µM,0.406
same,relative viability,[23]; first compound 0.1265 µM,0.384
same,relative viability,[23]; first compound 0.4 µM,0.387
same,relative viability,[23]; first compound 1.265 µM,0.4
